Measured values: the C3SDB collision cross section collection

Details: [M+H]+; instrument: TW; Major Mix IMS/Tof Calibration Kit (Waters)

Row | Structure (SMILES) | collision cross section (N2) [Å²]
1 | CN1C(=O)CN=C(c2ccccc2F)c2cc([N+](=O)[O-])ccc21 [Flunitrazepam] | 168.6
2 | FC(F)(F)c1ccc2c(c1)C(=CCCN1CCNCC1)c1ccccc1S2 [Flupentixol-M N-desalkyl] | 186
3 | O=S1c2ccccc2/C(=C\CCN2CCN(CCO)CC2)c2cc(C(F)(F)F)ccc21 (stereo not given) [Flupentixol-M sulphoxide] | 196.8
4 | OCCN1CCN(CC/C=C2\c3ccccc3Sc3ccc(C(F)(F)F)cc32)CC1 [Flupentixol] | 199.4
5 | CCN(CC)CCN1C(=O)CN=C(c2ccccc2F)c2cc(Cl)ccc21 [Flurazepam] | 185.3
6 | COc1ccc(Cl)cc1C(=O)NCCc1ccc(S(=O)(=O)NC(=O)NC2CCCCC2)cc1 [Glyburide] | 204.7
7 | CN1CC[C@]23c4c5ccc(O)c4O[C@H]2C(=O)CC[C@H]3[C@H]1C5 [Hydromorphone] | 163.9
8 | CCN(CCO)CCCC(C)Nc1ccnc2cc(Cl)ccc12 (stereo not given) [Hydroxychloroquine] | 180.2
9 | CNCCCN1c2ccccc2CCc2ccccc21 [Imipramine-M Nor] | 163.3
10 | Cc1cc(C(=O)NNCc2ccccc2)no1 [Isocarboxazid] | 152.1
11 | CCC(=O)C1(c2cccc(O)c2)CCN(C)CC1 [Ketobemidone] | 159.7
12 | CC(CCc1ccccc1)NCC(O)c1ccc(O)c(C(N)=O)c1 (stereo not given) [Labetalol] | 178.1
13 | Nc1nnc(-c2cccc(Cl)c2Cl)c(N)n1 [Lamotrigine] | 151.2
14 | COC(=O)C1=C(C)NC(C)=C(C(=O)OC(C)(C)CN(C)CCC(c2ccccc2)c2ccccc2)C1c1cccc([N+](=O)[O-])c1 (stereo not given) [Lercanidipine] | 249.8
15 | CNC[C@@H](C)CN1c2ccccc2S(=O)c2ccc(OC)cc21 (stereo not given in full) [Levomepromazine-M N-desmethyl sulfoxide] | 172.9
16 | CN1CC[C@]23CCCC[C@H]2[C@H]1Cc1ccc(O)cc13 [Levorphanol] | 161.7
17 | NC(=O)C(CCN1CCC(O)(c2ccc(Cl)cc2)CC1)(c1ccccc1)c1ccccc1 [Loperamid-M didesmethyl] | 211.9
18 | CN1CCN(C2=Nc3ccccc3Oc3ccc(Cl)cc32)CC1 [Loxapine] | 175.7
19 | CNCCCC1(C2=CC=CC=C32)CC[C@H]3C4=CC=CC=C14 [Maprotiline] | 164.2
20 | COc1ccc2[nH]cc(CCNC(C)=O)c2c1 [Melatonin] | 153.4
21 | CC1CCN(CCCC(=O)c2ccc(F)cc2)CC1 [Melperone] | 163.5
22 | C[C@]12C[C@@H]3C[C@](C)(C1)C[C@@](N)(C3)C2 [Memantine] | 146.6
23 | CNC(C)C(=O)c1ccc(C)cc1 (stereo not given) [Mephedrone] | 143.1
24 | Cc1cccc(C)c1NC(=O)C1CCCCN1C (stereo not given) [Mepivacaine] | 159.1

Row | Structure (SMILES) | collision cross section (N2) [Å²]
25 | CN(Cc1cnc2nc(N)nc(N)c2n1)c1ccc(C(=O)N[C@@H](CCC(=O)O)C(=O)O)cc1 [Methotrexate] | 196.2
26 | CNC(C)C(=O)c1ccc2c(c1)OCO2 (stereo not given) [Methylone] | 147.3
27 | C[C@]12CCC(=O)C=C1CC[C@@H]1[C@@H]2CC[C@@]2(C)[C@H]1CC[C@]2(C)O [Methyltestosterone] | 176
28 | COCCc1ccc(OCC(O)CNC(C)C)cc1 (stereo not given) [Metoprolol] | 172.7
29 | O=C(NCCN1CCOCC1)c1ccc(Cl)cc1 [Moclobemide] | 162.5
30 | CC(C)(O)c1ccccc1CC[C@@H](SCC1(CC(=O)O)CC1)c1cccc(/C=C/c2ccc3ccc(Cl)cc3n2)c1 [Montelukast] | 243
31 | CCN(CC)[C@@H](C)[C@H](O)c1ccccc1 [N-diethylnorephedrine] | 144.6
32 | CC(C)(C)NCC(O)COc1cccc2c1C[C@H](O)[C@H](O)C2 (stereo not given in full) [Nadolol] | 172
33 | O=C1CC[C@@]2(O)[C@H]3Cc4ccc(O)c5c4[C@@]2(CCN3CC2CC2)[C@H]1O5 [Naltrexone] | 176.5
34 | c1ccc2c(CC3=NCCN3)cccc2c1 [Naphazoline] | 149.6
35 | CNS(=O)(=O)CCc1ccc2[nH]cc(C3CCN(C)CC3)c2c1 [Naratriptan] | 174.3
36 | COC(=O)C1=C(C)NC(C)=C(C(=O)OCCN(C)Cc2ccccc2)C1c1cccc([N+](=O)[O-])c1 (stereo not given) [Nicardipine] | 212.1
37 | O=C1CN=C(c2ccccc2)c2cc([N+](=O)[O-])ccc2N1 [Nitrazepam] | 163.6
38 | COc1ccc2c3c1O[C@H]1[C@@H](O)C=C[C@H]4[C@@H](C2)NCC[C@@]341 [Norcodeine] | 166.1
39 | Cc1nccn1CC1CCc2c(c3ccccc3n2C)C1=O (stereo not given) [Ondansetron] | 171.7
40 | C=CCOc1ccccc1OCC(O)CNC(C)C (stereo not given) [Oxprenolol] | 161.7
41 | CN1CC[C@]23c4c5ccc(O)c4O[C@H]2C(=O)CC[C@@]3(O)[C@H]1C5 [Oxymorphone] | 164.6
42 | CC(=O)Nc1ccc(O)cc1 [Paracetamol] | 132.2
43 | CCCN1C[C@H](CSC)C[C@@H]2c3cccc4[nH]cc(c34)C[C@H]21 [Pergolide] | 177.9
44 | CCOC(=O)C1(c2ccccc2)CCN(C)CC1 [Pethidine] | 158.5
45 | CC(C)NCC(O)COc1cccc2[nH]ccc12 (stereo not given) [Pindolol] | 159.1
46 | NC(=O)C1(N2CCCCC2)CCN(CCCC(=O)c2ccc(F)cc2)CC1 [Pipamperone] | 194.1
47 | CN1CCC(=C2c3ccccc3CCc3sccc32)CC1 [Pizotifen] | 175.4
48 | CC(CN1c2ccccc2Sc2ccccc21)N(C)C (stereo not given) [Promethazine] | 163.7

Row | Structure (SMILES) | collision cross section (N2) [Å²]
49 | CC(C)NCC(O)COc1cccc2ccccc12 (stereo not given) [Propranolol] | 162.7
50 | Fc1ccccc1C1=NCC(=S)N(CC(F)(F)F)c2ccc(Cl)cc21 [Quazepam] | 174.9
51 | OCCOCCN1CCN(C2=Nc3ccccc3Sc3ccccc32)CC1 [Quetiapine] | 192.9
52 | CCOc1ccccc1O[C@H](c1ccccc1)[C@H]1CNCCO1 [Reboxetine] | 174
53 | Cc1nc2n(c(=O)c1CCN1CCC(c3noc4cc(F)ccc34)CC1)CCCC2O (stereo not given) [Risperidone-M 9-hydroxy] | 209.9
54 | O=C(O)C(c1ccccc1)C1CCCCN1 (stereo not given) [Ritalinic acid] | 150
55 | CN(C)CCc1c[nH]c2ccc(Cn3cncn3)cc12 [Rizatriptan] | 160.3
56 | CCCN(CCC)CCc1cccc2c1CC(=O)N2 [Ropinirole] | 163.8
57 | NC(=O)c1cn(Cc2c(F)cccc2F)nn1 [Rufinamide] | 148.6
58 | O=C1NCCN1CCN1CCC(c2cn(-c3ccc(F)cc3)c3ccc(Cl)cc23)CC1 [Sertindol] | 215.9
59 | CC(C)CC(N(C)C)C1(c2ccc(Cl)cc2)CCC1 (stereo not given) [Sibutramine] | 168
60 | CCCc1nn(C)c2c(=O)[nH]c(-c3cc(S(=O)(=O)N4CCN(C)CC4)ccc3OCC)nc12 [Sildenafil] | 212.7
61 | COc1ncnc(NS(=O)(=O)c2ccc(N)cc2)c1OC [Sulfadoxine] | 165.3
62 | Nc1ccc(S(=O)(=O)Nc2ccccn2)cc1 [Sulfapyridine] | 150.8
63 | CN1CC(=O)N2[C@H](c3ccc4c(c3)OCO4)c3[nH]c4ccccc4c3C[C@@H]2C1=O [Tadalafil] | 189.4
64 | CC/C(=C(\c1ccccc1)c1ccc(OCCN(C)C)cc1)c1ccccc1 [Tamoxifen] | 197.1
65 | CN1C(=O)C(O)N=C(c2ccccc2)c2cc(Cl)ccc21 (stereo not given) [Temazepam] | 166.1
66 | CN1C(C(=O)Nc2ccccn2)=C(O)c2sccc2S1(=O)=O [Tenoxicam] | 170.4
67 | CC(C)(C)NCC(O)c1cc(O)cc(O)c1 (stereo not given) [Terbutaline] | 154.9
68 | COc1cc2c(cc1OC)C1CC(=O)C(CC(C)C)CN1CC2 (stereo not given) [Tetrabenazine] | 182.6
69 | COc1ccc2c3c1O[C@H]1C(OC(C)=O)=CC[C@H]4[C@@H](C2)N(C)CC[C@]314 [Thebacon] | 178.2
70 | Clc1ccc2nsnc2c1NC1=NCCN1 [Tizanidine] | 149.4
